# Data: patent publication US20030113916A1, “Method for producing somatic embryos of scot pine (p sylvestris)” (priority 2000, published 2003)
# Test system: embryogenic cell lines F1, F2-1, F2-2, F2-3 (previously cryopreserved)
# Test: Maturation of somatic embryos on media with different ammonium to nitrate molar ratios and carbon sources
# Format: cell-based, Pinus sylvestris
# Conditions: ABA tested at 20, 35 y 60 μM in previous evaluation
# Method: For maturation process is highly relevant the interaction between nitrogen and carbon source, and the type of the carbon source. […] High concentration of abscisic acid has to be added when starting maturation in order to acquire best quality embryos and avoiding precocious germination; high average of conifers protocols ABA concentration varying between 16 μM and 24 μM. However for Pinus genera ABA is required between 60 μM and 100 μM. […] In order to produce gymnosperm mature somatic embryos with normal germination, is required such embryos developing on medium supplemented with high concentration of desiccant compound.
# Under the evaluation done to produce normal embryos, was utilized between 400 and 600 mg of embryogenic tissue per sample, such amount was dispersed on filter paper as no thin layer, with two washing only with liquid mineral medium and they were exposed only two weeks on medium supplemented with activated charcoal.
compound,measurement,value
"CC1=CC(=O)CC(C)(C)[C@@]1(O)/C=C/C(C)=C\C(=O)O [ABA, abscisic acid]",Effect on maturation of the cell lines,non effect
